In patent US11208446B2, “Agents and methods for treating CBP-dependent cancers” (priority 2016, dated 2021):

Experiments:
MYB:CBP complex = biological target: T1, MYB:CBP complex (Homo sapiens, UniProt Q92793); assay: Dissociation of MYB:CBP complex in AML cells (co-immunoprecipitation); type: cell-based
T1 construct: endogenous in cells; host or cells: MV411 human AML cells
Method: Co-immunoprecipitation analysis. 7.5 μg of indicated antibodies were conjugated to 1 mg M-270 Epoxy-coated magnetic beads (Invitrogen) according to manufacturer's instructions. 1×10^7 MV411 cells were collected and washed in cold PBS. Washed cell pellets were resuspended in 350 μL cold lysis buffer (50 mM Tris-HCl pH 7.4, 150 mM NaCl, 1 mM EDTA, 1 mM DTT, 0.5% Triton X-100, supplemented with protease inhibitors described above) and incubated on ice for 10 min. Cells were mechanically disrupted using the Covaris […] adaptive focused sonicator at 50 W peak power, 10% duty cycle, 200 cycles per burst at 4° C. for 300 sec. Lysate was clarified by centrifugation for 15 min at 18,000×g at 4° C. Supernatant (cleared lysate) was diluted in 1.05 mL dilution buffer (50 mM Tris-HCl, 150 mM NaCl, 1 mM EDTA, 1 mM DTT, 10% glycerol, supplemented with protease inhibitors described above for a total volume of 1.4 mL. Diluted lysate was added to 1 mg beads, and immunoprecipitation proceeded for 3 h at 4° C. with rotation. Beads were then washed with lysis buffer twice. Proteins were eluted in 20 μL EB buffer (Invitrogen) for 5 min at room temperature, and eluate was neutralized with 2 μL 1M Tris pH 11. Samples were prepared for Western blot by addition of Laemmli buffer with 50 mM DTT and incubation at 95° C. for 5 min. Presence of MYB and CBP was identified by Western blot as described above.

[1] = tested on: H3K27Ac-driven oncogenic enhancers; assay: ChIP-seq of H3K27Ac enhancers in AML cells; type: cell-based, human
Method: Chromatin immunoprecipitation and sequencing (ChIP-seq). Briefly, cells were fixed in 1% formalin in phosphate-buffered saline (PBS) for 10 minutes at room temperature. Glycine (125 mM final concentration) and Tris-HCl pH 8 (100 mM final concentration) was added to the cells and cells were washed twice in ice-cold PBS and resuspended in sodium dodecyl sulfate (SDS) lysis buffer (1% SDS, 10 mM EDTA, 50 mM Tris-HCl, pH 8.1). Lysates were sonicated using the Covaris […] adaptive focused sonicator to obtain 100-500 bp chromatin fragments (Covaris, Woburn, Calif.). Lysates containing sheared chromatin fragments were resuspended in 0.01% SDS, 1.1% Triton-X100, 1.2 mM EDTA, 16.7 mM Tris-HCl, pH 8.1, 167 mM NaCl. Lysates and antibody-coupled beads were incubated over night at 4° C. Precipitates were washed sequentially with Mixed Micelle Wash Buffer (15 ml 5M NaCl-150 mM Final, 10 ml 1M Tris-Cl pH 8.1, 5 ml 0.5M EDTA, pH 8.0, 40 ml 65% w/v sucrose, 1 ml 10% NaN3, 25 ml 20% Triton X-100, 10 ml 10% SDS, Add dH2O to 500 ml), LiCl washing solution (0.5% deoxycholic acid, 1 mM EDTA, 250 mM LiCl, 0.5% NP-40, 10 mM Tris-Cl pH 8.0, 0.2% NaN3) and then TBS buffer (20 mM Tris-Cl pH 7.4, 150 mM NaCl). Elution performed in elution buffer (1% SDS, 0.1 M NaHCO3). […] Libraries were sequenced on the Illumina HiSeq 2500 instruments, with 30 million 2×50 bp paired reads.

[2] = tested on: MYC and BCL2 mRNA expression; assay: RT-qPCR of BCL2 and MYC mRNA normalized to GAPDH; type: cell-based; details: human AML cell lines
Method: Quantitative RT-PCR. RNA was isolated using Trizol reagent according to the manufacturer's instructions (Life Technologies). Complementary DNA was synthesized using the SuperScript III First-Strand Synthesis system according to the manufacturer's instructions (Invitrogen). Quantitative real-time PCR was performed using the KAPA SYBR FAST PCR polymerase with 20 ng template and 200 nM primers, according to the manufacturer's instructions (Kapa Biosystems, Wilmington, Mass., USA). PCR primers are listed below. Ct values were calculated using ROX normalization using the ViiA 7 software (Applied Biosystems).

MOLM13 cells = assay: Giemsa staining of cells for morphology; type: cell-based, human; details: 20 μM, 6 hours
Method: Giemsa staining of cells for Morphology. MOLM13 cells were resupended to a concentration of 1×10^6 cells in 1 milliliter of PBS. Using the benchtop Cytospin Centrifuge instrument (ThermoFisher Scientific), 200 uL of the cell suspension was applied white clipped Cytofunnels (ThermoFisher Scientific) to glass microscope slides (2×10^5 cells/slide). Dip Quick Stain (J-322, Jorgensen Laboratories, Inc) was used for per manufacturer's protocol for the polychromic stain of cells.

MV411 cells = assay: Flow cytometric analysis of apoptosis (Annexin-V); type: cell-based, human; details: 20 μM, 24 hours
Method: Flow cytometric analysis of Apoptosis. Cells were resuspended to a concentration of 1×10^6 cells were plated in triplicate in a 12-well tissue culture plate. For assessment of annexin V staining, cells were washed with PBS and then resuspended in PBS with Annexin V-APC (BioLegend) and propidium iodide at a dilution of 1:1000. For intracellular detection of cleaved caspase 3, cells were fixed and permeabilized using the BD Cytofix/Cytoperm Fixation/Permeabilization solution according to the manufacturer's instructions (BD Biosciences. Cells were then stained using the Alexa Fluor 647-conjugated anti-active caspase-3 (BD Biosciences) at a dilution of 1:50. Cells were incubated for 30 minutes room temperature in the dark, washed, and then analyzed using the BD LSRFortessa cell analyzer.

T1 sequence (Q92793 2-2442 limits assumed, one chain of several): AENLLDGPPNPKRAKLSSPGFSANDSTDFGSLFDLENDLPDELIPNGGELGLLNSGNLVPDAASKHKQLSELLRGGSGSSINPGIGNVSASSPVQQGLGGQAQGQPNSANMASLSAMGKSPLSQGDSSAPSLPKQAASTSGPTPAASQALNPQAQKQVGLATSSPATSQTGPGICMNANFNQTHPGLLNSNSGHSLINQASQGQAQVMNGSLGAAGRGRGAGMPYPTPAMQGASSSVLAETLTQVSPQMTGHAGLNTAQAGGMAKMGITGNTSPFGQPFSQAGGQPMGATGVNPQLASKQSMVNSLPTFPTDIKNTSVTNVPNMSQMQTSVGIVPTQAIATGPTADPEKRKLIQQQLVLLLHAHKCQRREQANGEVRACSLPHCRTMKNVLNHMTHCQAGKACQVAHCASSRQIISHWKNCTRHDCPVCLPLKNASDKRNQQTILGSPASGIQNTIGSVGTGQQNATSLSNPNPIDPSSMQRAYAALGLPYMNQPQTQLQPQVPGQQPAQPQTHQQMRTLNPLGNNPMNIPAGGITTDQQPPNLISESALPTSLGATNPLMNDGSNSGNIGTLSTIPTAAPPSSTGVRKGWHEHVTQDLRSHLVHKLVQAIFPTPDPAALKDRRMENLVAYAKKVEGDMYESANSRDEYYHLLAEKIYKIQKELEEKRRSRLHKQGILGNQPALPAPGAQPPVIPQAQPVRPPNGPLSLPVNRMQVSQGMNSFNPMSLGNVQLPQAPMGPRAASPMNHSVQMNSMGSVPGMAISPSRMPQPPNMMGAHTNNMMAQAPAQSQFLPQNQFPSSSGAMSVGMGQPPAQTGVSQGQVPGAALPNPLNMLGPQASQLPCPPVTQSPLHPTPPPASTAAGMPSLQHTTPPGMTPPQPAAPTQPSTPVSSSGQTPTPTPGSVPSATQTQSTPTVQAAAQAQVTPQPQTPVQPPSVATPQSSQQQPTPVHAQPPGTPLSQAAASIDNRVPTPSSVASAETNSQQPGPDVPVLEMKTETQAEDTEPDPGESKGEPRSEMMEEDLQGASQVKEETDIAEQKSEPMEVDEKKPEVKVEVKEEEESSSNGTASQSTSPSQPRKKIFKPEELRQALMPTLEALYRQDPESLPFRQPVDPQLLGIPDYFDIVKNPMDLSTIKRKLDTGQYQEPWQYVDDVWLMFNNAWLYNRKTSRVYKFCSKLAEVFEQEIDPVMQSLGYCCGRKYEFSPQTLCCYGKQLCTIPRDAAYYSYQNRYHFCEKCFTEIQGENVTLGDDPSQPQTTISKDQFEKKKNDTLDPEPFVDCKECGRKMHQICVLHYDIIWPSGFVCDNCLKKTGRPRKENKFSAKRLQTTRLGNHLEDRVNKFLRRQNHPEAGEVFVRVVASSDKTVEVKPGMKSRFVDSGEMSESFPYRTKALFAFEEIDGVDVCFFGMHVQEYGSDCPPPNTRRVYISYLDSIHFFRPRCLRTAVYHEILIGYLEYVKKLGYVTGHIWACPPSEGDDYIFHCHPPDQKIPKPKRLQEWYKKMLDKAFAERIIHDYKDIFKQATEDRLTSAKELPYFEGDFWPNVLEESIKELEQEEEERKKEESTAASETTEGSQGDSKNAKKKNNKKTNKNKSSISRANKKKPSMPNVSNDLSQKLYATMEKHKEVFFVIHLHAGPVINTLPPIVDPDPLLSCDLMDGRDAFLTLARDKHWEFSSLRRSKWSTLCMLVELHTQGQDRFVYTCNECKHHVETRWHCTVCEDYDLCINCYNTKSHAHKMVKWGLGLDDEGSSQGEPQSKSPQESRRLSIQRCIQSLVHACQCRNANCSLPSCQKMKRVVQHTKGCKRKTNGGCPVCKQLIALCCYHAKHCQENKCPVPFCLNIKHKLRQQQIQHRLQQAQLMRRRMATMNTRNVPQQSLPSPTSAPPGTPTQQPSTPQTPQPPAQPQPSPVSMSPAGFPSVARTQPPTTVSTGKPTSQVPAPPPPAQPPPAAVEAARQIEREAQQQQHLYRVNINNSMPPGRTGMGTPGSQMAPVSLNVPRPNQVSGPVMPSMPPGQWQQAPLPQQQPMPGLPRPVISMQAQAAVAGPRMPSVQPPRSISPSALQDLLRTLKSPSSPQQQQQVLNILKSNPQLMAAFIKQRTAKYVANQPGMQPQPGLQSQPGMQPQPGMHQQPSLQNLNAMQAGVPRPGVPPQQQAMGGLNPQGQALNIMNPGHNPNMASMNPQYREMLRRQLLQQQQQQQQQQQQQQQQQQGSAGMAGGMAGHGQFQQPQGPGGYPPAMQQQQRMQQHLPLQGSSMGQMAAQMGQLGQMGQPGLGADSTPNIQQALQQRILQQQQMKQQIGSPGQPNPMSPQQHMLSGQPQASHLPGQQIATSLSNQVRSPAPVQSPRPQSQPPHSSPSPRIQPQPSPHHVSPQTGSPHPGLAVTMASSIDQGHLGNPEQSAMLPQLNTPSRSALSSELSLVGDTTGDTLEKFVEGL

Compound: CC[C@@H](C)[C@@H](NC(=O)[C@@H](CCCCN)NC(=O)[C@@H](CCC(=O)O)NC(=O)[C@@H](CC(C)C)NC(=O)[C@@H](CCC(=O)O)NC(=O)[C@@H](CC(C)C)NC(=O)[C@@H](CC(C)C)NC(=O)[C@@H](CC(C)C)NC(=O)[C@@H](CCSC)NC(=O)[C@@H](CO)NC(=O)[C@H](NC(=O)[C@@H](CCC(=O)O)NC(=O)[C@@H](CC(N)=O)NC(=O)[C@@H](CCC(=O)O)NC(=O)[C@@H](CC(C)C)NC(=O)[C@@H](CCCCN)NC(C)=O)[C@H](C)O)C(=O)N[C@H](CCCNC(=N)N)C(=O)N[C@H](CCCCN)C(=O)NCC(=O)NCC(=O)N[C@H](CCCNC(=N)N)C(=O)N[C@H](CCCNC(=N)N)C(=O)N[C@H](CCCNC(=N)N)C(=O)N[C@H](CCC(N)=O)C(=O)N[C@H](CCCNC(=N)N)C(=O)N[C@H](CCCNC(=N)N)C(=O)N[C@H](CCCCN)C(=O)N[C@H](CCCCN)C(=O)N[C@H](CCCNC(=N)N)C(=O)NCC(=O)N[C@H](Cc1ccc(O)cc1)C(N)=O [MYBMIM]
- MYB:CBP complex in cells (MYB:CBP complex): displacement and dissociation of MYB:CBP complex
- H3K27Ac-driven oncogenic enhancers [1]: obliteration
- MYC and BCL2 mRNA expression as a percentage of GAPDH [2]: downregulation
- cell morphology (MOLM13 cells): induces cell death without morphologic evidence of differentiation
- apoptosis (Annexin-V staining) (MV411 cells): induction of apoptosis
